# Counter-ions that a name gives are not always drawn. Active and inactive are the calls of the source.
# How the values were obtained:
# [1] = target: T1, Heat shock factor protein 1 (Mus musculus, UniProt P38532); assay: HSF1 potentiators in luciferase reporter cells, confirmation, cell-based, NIH3T3, luminescence, dose retest (AID 435004); assay type: functional;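 further: stress induced by proteasome inhibitor MG132 added 30 min after compound; luciferase reporter driven by HSF1 response element in NIH3T3 cells; actives raise luminescence as potentiators of the MG132 stress response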
# T1 sequence (P38532 whole entry): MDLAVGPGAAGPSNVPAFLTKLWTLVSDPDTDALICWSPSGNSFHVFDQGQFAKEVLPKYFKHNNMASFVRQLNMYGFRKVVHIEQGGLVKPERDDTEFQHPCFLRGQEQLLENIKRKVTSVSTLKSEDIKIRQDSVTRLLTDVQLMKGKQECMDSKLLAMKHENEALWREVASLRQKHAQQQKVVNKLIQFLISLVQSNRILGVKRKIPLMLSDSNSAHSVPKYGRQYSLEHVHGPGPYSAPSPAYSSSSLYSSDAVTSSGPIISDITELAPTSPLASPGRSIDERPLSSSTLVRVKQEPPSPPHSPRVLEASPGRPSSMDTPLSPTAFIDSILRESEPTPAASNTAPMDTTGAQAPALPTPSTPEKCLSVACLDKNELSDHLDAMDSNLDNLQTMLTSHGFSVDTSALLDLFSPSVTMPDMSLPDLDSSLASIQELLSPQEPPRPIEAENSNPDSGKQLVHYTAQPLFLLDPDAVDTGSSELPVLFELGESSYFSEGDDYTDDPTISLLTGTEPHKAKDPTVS
# cells [2] = assay type: functional, cell-based
# cells [3] = assay type: functional, cell-based; remark: listed apart in the source
# [4] = growth suppression of beta-catenin-knockout colon cells, dose response, cell-based, HCT116, human colon tumor (AID 1045); assay type: functional;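 further: HCT116 colon tumor cells with beta catenin knocked out; cells exposed to compound for 60 hours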
# [5] = growth suppression of PTEN-null colon cells, dose response, cell-based, HCT116 PTEN knockout (AID 1047); assay type: functional;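 further: HCT116 colon tumor cells with PTEN knocked out; cells exposed to compound for 60 hours before readout; potency for loss of cell viability measured by luminescence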
# [6] = target: T1, Heat shock factor protein 1; assay: inhibition of MG132-induced HSE-luciferase signal, confirmation, cell-based, NIH3T3, luminescence, dose retest (AID 2382); assay type: functional;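 further: NIH3T3 fibroblasts with HSF1-driven luciferase reporter stressed by proteasome inhibitor MG132; luminescence from HSF1-driven luciferase expression after 8 hours of MG132 stress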
# [7] = Luminescence Cell-Based Dose Retest to Confirm Inhibitors of Cancer Stem Cells. [Related pubchem assays (depositor defined):AID2717, AID2721]; assay type: functional; details: Homo sapiens
# INS1 = assay: beta cell apoptosis inhibitors, cytokine rescue, dose response, luminescence, retest (AID 449756); assay type: functional, cell-based; details: Rattus norvegicus;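 further: cell death triggered by IL-1 beta plus TNF-alpha plus IFN-gamma mixture; protective hits raise ATP signal compared with cytokine alone wells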
# [8] = target: T2, Ubiquitin-conjugating enzyme E2 N (Homo sapiens, UniProt P61088); assay type: functional;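 further: Dose-response confirmation in a TR-FRET assay detecting UBC13-driven polyubiquitin chain formation, inhibition measured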
# T2 sequence (P61088 whole entry): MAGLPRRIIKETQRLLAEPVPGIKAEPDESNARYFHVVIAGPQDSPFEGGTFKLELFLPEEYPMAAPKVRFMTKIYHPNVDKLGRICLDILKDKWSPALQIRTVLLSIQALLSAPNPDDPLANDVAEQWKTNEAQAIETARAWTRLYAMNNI
# Cytochrome P450 2D6 = Cytochrome P450 2D6 (Homo sapiens, UniProt P10635);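 further: CYP2D6 member of a cytochrome P450 panel assay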
# [9] = target: T3, Replicative DNA helicase DnaB (Mycobacterium tuberculosis, UniProt P9WMR3); assay: DnaB intein splicing inhibitors, dose response, biochemical, cell-free fluorescence (AID 449749); assay type: functional
# T3 sequence (P9WMR3 whole entry): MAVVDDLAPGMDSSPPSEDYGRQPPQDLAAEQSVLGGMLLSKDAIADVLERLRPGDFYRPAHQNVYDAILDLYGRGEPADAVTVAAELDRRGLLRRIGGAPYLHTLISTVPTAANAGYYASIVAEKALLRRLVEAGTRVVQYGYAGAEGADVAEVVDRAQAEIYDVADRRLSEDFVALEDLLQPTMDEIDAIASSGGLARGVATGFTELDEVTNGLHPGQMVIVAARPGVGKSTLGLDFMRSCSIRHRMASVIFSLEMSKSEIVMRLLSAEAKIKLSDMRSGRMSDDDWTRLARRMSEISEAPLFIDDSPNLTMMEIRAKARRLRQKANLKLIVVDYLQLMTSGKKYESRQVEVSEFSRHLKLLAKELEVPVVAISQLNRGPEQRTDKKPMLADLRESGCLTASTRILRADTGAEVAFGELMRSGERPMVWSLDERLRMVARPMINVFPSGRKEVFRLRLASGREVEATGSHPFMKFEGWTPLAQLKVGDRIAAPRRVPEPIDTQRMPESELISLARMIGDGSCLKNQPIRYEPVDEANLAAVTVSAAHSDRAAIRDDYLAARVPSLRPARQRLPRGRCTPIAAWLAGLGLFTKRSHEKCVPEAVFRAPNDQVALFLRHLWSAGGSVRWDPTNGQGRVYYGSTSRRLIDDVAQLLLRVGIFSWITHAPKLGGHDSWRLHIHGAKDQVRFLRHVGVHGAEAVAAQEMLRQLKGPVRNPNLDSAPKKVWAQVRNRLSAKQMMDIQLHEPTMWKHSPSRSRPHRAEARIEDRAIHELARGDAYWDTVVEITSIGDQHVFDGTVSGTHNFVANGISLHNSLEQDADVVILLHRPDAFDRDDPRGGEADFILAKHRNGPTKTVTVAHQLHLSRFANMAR
# Protein RecA = target: T4, Protein RecA (Mycobacterium tuberculosis, UniProt P9WHJ3); assay: Fluorescence Cell-Free Homogeneous Dose Retest to Identify Inhibitors of RecA-Intein Splicing Activity. [Related pubchem assays (depositor defined):AID2097, AID2223, AID489010, AID492950]; assay type: functional
# T4 sequence (P9WHJ3 whole entry): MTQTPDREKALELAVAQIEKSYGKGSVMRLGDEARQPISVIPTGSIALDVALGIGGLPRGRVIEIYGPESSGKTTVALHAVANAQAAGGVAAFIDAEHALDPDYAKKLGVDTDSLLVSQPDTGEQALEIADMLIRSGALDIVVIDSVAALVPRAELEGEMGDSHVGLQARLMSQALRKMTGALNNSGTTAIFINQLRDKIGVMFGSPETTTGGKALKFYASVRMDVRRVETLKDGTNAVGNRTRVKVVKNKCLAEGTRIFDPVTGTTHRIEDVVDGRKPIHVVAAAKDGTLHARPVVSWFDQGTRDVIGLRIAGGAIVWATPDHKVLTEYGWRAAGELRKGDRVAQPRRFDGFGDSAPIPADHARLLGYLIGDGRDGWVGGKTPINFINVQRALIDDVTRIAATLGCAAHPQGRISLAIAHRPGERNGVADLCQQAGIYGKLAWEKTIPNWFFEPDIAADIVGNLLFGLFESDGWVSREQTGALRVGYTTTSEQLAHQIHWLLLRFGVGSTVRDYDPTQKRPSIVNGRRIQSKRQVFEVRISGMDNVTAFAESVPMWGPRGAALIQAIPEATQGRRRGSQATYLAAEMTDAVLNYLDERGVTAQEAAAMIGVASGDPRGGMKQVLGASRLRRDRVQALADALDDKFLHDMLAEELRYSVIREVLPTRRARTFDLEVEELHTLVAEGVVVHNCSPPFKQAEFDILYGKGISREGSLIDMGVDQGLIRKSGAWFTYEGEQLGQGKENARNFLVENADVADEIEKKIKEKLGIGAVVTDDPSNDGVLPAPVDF
# [10] = cytotoxicity toward NIH3T3 fibroblasts, dose response, counter-screen, cell-based, ATP luminescence, mouse fibroblasts (AID 2010); assay type: functional;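 further: cells exposed to compound for about 90 hours before reading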
# [11] = inhibitors of intracellular T. cruzi replication, confirmation, NIH3T3 host cells, beta-gal luminescence (AID 2044); assay type: functional, cell-based;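 further: intracellular parasites grown in NIH/3T3 mouse fibroblasts as host cells; luminescent beta-galactosidase reporter signal from transgenic T. cruzi replicating inside host cells; inhibitors lower the luminescence signal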
# [12] = Luminescence Cell-Based Dose Response HTS to Identify Inhibitors of 5'UTR Stem-Loop Driven Prion Protein mRNA Translation in H4 Neuroglioblastoma Cells. [Related pubchem assays: 1827 (Project Summary), 1813 (Primary HTS)]; assay type: functional
# [13] = inhibitors of firefly luciferase expression or activity, dose response, H4 neuroglioma cells, luminescence (AID 1990); assay type: functional, cell-based
# Cytochrome P450 3A4 = Cytochrome P450 3A4 (Homo sapiens, UniProt P08684);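 further: CYP3A4 tested as one member of a cytochrome P450 panel screen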
# [14] = HEp-2 cell cytotoxicity, dose response, cytotoxicity control for RSV inhibitor project, HTS (AID 2410); assay type: functional; details: human respiratory syncytial virus
# [15] = Shn3 3'UTR reporter inhibitors, dose response, cell-based, Clone20 osteoblasts, firefly luciferase, cherry-picked (AID 624132); assay type: functional;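 further: firefly luciferase luminescence from reporter carrying the Shn3 3'UTR in osteoblasts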
# [16] = control 3'UTR Renilla luciferase suppression, dose response, counter-screen for Shn3 inhibitor project, cell-based, Clone20-Shn3RL, cherry-picked (AID 624133); assay type: functional
# [17] = HepG2 cell cytotoxicity, dose response, cytotoxicity control for Shn3 inhibitor project, CellTiter-Glo, cherry-picked (AID 624134); assay type: functional, cell-based
# Chain of Cytochrome P450 2D6 (P10635 whole entry): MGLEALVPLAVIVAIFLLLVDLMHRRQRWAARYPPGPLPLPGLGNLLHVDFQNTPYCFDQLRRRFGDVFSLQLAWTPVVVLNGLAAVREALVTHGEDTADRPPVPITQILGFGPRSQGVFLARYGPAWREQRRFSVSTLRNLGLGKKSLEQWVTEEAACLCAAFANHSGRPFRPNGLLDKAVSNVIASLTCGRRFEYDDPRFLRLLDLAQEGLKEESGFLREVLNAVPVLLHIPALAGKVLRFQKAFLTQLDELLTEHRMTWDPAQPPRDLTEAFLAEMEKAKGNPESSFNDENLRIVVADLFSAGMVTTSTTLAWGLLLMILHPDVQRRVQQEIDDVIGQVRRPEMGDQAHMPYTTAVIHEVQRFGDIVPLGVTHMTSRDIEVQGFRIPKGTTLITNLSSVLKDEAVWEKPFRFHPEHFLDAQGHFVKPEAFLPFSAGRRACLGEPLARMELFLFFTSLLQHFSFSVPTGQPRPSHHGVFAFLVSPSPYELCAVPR
# Chain of Cytochrome P450 3A4 (P08684 whole entry): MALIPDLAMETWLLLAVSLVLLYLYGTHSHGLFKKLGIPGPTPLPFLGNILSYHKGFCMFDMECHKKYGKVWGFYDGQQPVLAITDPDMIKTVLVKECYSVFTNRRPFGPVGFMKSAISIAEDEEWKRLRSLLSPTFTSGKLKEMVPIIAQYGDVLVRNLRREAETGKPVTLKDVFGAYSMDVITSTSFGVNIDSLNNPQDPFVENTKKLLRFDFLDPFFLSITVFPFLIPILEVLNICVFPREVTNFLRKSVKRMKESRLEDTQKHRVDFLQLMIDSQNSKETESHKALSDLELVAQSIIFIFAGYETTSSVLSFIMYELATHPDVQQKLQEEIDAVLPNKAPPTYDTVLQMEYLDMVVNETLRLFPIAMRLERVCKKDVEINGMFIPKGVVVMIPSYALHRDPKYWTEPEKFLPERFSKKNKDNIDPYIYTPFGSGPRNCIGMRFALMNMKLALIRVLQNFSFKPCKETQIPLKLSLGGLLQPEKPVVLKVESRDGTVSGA
structure (smiles),measurement,setting,value
CNC(=O)C1CC(=O)N(c2ccc(OCC(=O)N3CCCC3)cc2)C1 (stereo unspecified),EC50,[1],> 260 µM (inactive)
same,EC50,cells [2],> 350 µM (not active)
same,EC50,cells [3],> 350 µM (not active)
Cc1ccc(S(=O)(=O)c2c(N)n(Cc3ccco3)c3nc4ccccc4nc23)cc1C,EC50,[4],20.1 µM (active)
same,EC50,[5],18.4 µM (active)
CCOC(=O)c1cc2sccc2n1CC(=O)Nc1ccc(OC)cc1,EC50,[6],> 195 µM (not active)
same,EC50,cells [2],> 350 µM (not active)
same,EC50,cells [3],> 350 µM (not active)
Cc1ccc(C)c(NC(S)=NC(NC(=O)Cc2cccc3ccccc23)C(Cl)(Cl)Cl)c1 (stereo unspecified),EC50,[4],15.5 µM (active)
same,AC50,[7],0.861 µM (active)
same,AC50,INS1,4.16 µM (active)
same,EC50,[5],13.9 µM (active)
O=[N+]([O-])c1c(-c2cn[nH]c2)n[nH]c1-c1cn[nH]c1,IC50,[8],> 20 µM (inactive)
O=C(c1ccco1)N1CCC[C@@]2(CCN(c3ncccn3)C2)C1,AC50,Cytochrome P450 2D6,25.1 µM (inconclusive)
C=C(C)CN=C(S)N=Nc1c(O)[nH]c2ccc([N+](=O)[O-])cc12,AC50,[9],52.8 µM (active)
same,IC50,[8],> 20 µM (inactive)
same,EC50,Protein RecA,151 µM (inconclusive)
CC(=O)Nc1ccc(S(=O)(=O)N2CCN(CC(O)COc3ccc4ccccc4c3)CC2)cc1 (stereo unspecified),IC50,[8],> 20 µM (inactive)
CCOC(=O)c1c(NC(=O)CSc2nc3cc(Cl)ccc3c(=O)n2Cc2ccco2)sc(C(=O)N(C)C)c1C,EC50,[4],12.2 µM (active)
same,EC50,[1],7.33 µM (active)
same,EC50,[10],> 60 µM (inconclusive)
same,EC50,[5],6.8 µM (active)
same,EC50,[11],0.999 µM (active)
CCC(CC)NC(=O)c1cc2c(C)nn(Cc3ccccc3Cl)c2s1,EC50,[12],> 120 µM (not active)
same,EC50,[13],11.7 µM (active)
COc1ccc(CNc2ccnc(-c3ccccc3Cl)n2)c(OC)c1,AC50,Cytochrome P450 2D6,39.8 µM (inconclusive)
Cc1cccc(NC(S)=Nc2ccc(Br)cc2)c1,AC50,Cytochrome P450 2D6,8.91 µM (inconclusive)
same,AC50,Cytochrome P450 3A4,25.1 µM (inconclusive)
CCCn1c(SCC(=O)N2CCc3ccccc3C2)nc2c1c(=O)n(C)c(=O)n2C,EC50,cells [2],> 350 µM (not active)
same,EC50,cells [3],> 350 µM (not active)
CC(C)(C)NC(=O)CN(C(=O)Cn1nnc(-c2ccc(Cl)cc2)n1)C1CCN(Cc2ccccc2)CC1,EC50,[4],37.9 µM (active)
same,EC50,[5],41.4 µM (active)
same,CC50,[14],25.7 µM (active)
Cc1ccc2nnn(Cc3cccc(C(C)(C)C)c3O)c2c1,AC50,[15],5.44 µM (active)
same,EC50,[1],> 260 µM (inactive)
same,AC50,[16],7.31 µM (active)
same,AC50,[17],59.3 µM (active)
CN(CC(=O)Nc1ccc(S(=O)(=O)N2CCCC2)cc1)CC(=O)Nc1cccc(F)c1,EC50,cells [2],> 350 µM (not active)
same,EC50,cells [3],> 350 µM (not active)
O=C(NNC(=O)C(O)(c1ccccc1)c1ccccc1)C1CC1,EC50,cells [2],> 350 µM (not active)
same,EC50,cells [3],> 350 µM (not active)
O=C(NCc1ccc2c(c1)OCO2)c1nc(S(=O)(=O)Cc2ccccc2F)ncc1Cl,AC50,[15],5.19 µM (active)
same,AC50,[7],5.02 µM (active)
same,AC50,[9],2.6 µM (active)
same,AC50,[16],5.92 µM (active)
same,AC50,[17],31.1 µM (active)
same,EC50,Protein RecA,3.25 µM (active)
O=C(Nc1ccc(Br)cc1F)c1ccc2c(c1)OCCO2,EC50,[12],10.8 µM (active)
COc1ccc(CN(C)CC(=O)Nc2ccc(SC(F)F)cc2)cc1OC,EC50,cells [2],> 350 µM (not active)
same,EC50,cells [3],> 350 µM (not active)
O=C(NC12CC3CC(CC(C3)C1)C2)C12CC3CC(C1)CC(n1cnc(Cl)n1)(C3)C2,AC50,Cytochrome P450 2D6,11.2 µM (inconclusive)
same,AC50,Cytochrome P450 3A4,14.1 µM (inconclusive)
CN(CC(=O)Nc1cccc(S(=O)(=O)N2CCOCC2)c1)CC(=O)Nc1ccc(Cl)c(C(F)(F)F)c1,AC50,[15],2.4 µM (active)
same,AC50,[16],6.89 µM (active)
same,AC50,[17],56.7 µM (active)
COc1ccc([C@H]2CC(=O)C=C(c3ccc4c(c3)OCO4)C2)cc1OC,AC50,[15],58.3 µM (active)
same,AC50,[16],28.9 µM (active)
COc1ccc(/N=c2\oc3ccc(OC)cc3cc2-c2nc3ccccc3[nH]2)cc1,EC50,[4],13 µM (active)
same,EC50,[5],3.77 µM (active)
Cc1cc(C)n(-c2nnc(C)n2/N=C/c2ccccc2OCc2ccccc2Cl)n1,AC50,Cytochrome P450 2D6,28.2 µM (inconclusive)
CN1CCCC(CC2c3ccccc3Sc3ccccc32)C1 (stereo unspecified) [METHIXENE HYDROCHLORIDE],IC50,[8],> 20 µM (inactive)

# — ChEMBL document CHEMBL1201862, “PubChem BioAssay data set” (2004)
